Measurements published in patent US20210300940A1 (Merck Patent GmbH, priority 2018, published 2021).

Experiments:
TLR8 = target: T1, TLR8 (Homo sapiens, UniProt Q9NR97); assay: HEK/293 TLR8 Cell Assay; type: cell-based; conditions: HEK cells, R848 agonist 30 uM final concentration, Steady-Glo readout; read-out: TLR8 potency
T1 construct: expressed in transfected cells; host or cells: HEK/293 reporter cells (NF-kB luciferase)
T1 sequence (Q9NR97 27-1041): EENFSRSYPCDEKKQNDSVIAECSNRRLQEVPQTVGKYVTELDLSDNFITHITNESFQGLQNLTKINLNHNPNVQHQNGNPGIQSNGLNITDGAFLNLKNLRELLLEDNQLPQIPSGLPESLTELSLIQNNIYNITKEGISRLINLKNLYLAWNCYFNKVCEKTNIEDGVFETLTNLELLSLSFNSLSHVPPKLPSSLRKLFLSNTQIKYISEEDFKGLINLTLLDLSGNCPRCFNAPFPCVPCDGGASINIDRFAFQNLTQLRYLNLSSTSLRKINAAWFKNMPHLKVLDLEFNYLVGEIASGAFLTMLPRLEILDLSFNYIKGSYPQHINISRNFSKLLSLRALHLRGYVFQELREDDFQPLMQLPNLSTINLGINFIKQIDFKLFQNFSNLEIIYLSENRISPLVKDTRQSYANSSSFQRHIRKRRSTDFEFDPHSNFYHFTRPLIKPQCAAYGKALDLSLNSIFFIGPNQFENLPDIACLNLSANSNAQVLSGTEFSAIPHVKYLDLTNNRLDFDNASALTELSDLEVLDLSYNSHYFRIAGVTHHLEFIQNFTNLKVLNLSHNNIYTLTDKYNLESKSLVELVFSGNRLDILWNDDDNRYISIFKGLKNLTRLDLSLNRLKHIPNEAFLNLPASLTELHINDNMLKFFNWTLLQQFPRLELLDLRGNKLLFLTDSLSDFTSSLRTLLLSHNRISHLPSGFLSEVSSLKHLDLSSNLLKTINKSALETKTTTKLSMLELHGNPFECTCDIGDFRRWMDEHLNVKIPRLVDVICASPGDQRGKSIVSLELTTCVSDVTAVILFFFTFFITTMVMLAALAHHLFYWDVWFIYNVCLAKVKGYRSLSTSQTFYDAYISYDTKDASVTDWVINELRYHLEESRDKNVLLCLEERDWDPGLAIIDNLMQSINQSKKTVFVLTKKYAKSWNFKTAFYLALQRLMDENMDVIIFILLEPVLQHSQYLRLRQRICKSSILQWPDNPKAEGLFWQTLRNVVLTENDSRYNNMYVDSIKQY

TLR7 = target: T2, TLR7 (Homo sapiens, UniProt Q9NYK1); assay: HEK/293 TLR7 Cell Assay; type: cell-based; conditions: TLR7/NFKb HEK cells, R848 agonist 10 uM final concentration, Steady-Glo readout; read-out: TLR7 potency
T2 construct: expressed in transfected cells; host or cells: HEK/293 cells carrying TLR7 and an NF-kB luciferase reporter
T2 sequence (Q9NYK1 27-1049): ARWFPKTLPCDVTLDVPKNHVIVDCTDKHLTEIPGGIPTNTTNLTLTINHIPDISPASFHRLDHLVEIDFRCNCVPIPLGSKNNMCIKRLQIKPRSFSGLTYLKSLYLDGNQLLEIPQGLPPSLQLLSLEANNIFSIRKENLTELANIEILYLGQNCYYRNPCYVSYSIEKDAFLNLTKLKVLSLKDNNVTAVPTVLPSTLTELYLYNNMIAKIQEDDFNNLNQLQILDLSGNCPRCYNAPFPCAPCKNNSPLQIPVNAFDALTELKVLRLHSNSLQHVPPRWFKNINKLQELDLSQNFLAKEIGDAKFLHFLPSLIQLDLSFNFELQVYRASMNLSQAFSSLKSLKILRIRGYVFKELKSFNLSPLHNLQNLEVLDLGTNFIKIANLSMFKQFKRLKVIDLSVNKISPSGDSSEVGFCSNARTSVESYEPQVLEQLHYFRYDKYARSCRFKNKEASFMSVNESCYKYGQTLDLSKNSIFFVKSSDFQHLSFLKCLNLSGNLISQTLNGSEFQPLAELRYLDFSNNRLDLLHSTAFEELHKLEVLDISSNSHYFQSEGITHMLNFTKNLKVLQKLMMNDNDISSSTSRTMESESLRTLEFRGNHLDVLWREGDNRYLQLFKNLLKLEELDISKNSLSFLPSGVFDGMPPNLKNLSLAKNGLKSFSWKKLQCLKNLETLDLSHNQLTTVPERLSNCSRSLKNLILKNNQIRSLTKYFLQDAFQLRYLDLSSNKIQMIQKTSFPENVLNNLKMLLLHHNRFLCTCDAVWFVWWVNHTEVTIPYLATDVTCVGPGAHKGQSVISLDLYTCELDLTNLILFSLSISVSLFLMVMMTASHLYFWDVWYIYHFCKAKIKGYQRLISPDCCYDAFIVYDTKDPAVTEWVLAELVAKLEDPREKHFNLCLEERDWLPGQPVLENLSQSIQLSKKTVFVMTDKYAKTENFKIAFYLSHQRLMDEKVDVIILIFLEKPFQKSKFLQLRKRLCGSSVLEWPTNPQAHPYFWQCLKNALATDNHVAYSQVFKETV
Method in brief: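 TLR7/NF-κB reporter HEK293 cells, 5000/well, cultured 24 h, then preincubated 30 min with compound before R848 agonist (10 uM final). After 5 h stimulation, Steady-Glo luciferase luminescence read.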

IC50 (TLR8)	IC50 (TLR7)	Compound
< 75 nM	< 75 nM	C[C@@H]1CN(c2ccc(C#N)c3ncncc23)C[C@H](C(=O)NC2CCC(N3CCOCC3)CC2)O1 (stereo partly drawn) [Example 268, (2R,6R)-4-(8-Cyano-quinazolin-5-yl)-6-methyl-morpholine-2-carboxylic acid (4-morpholin-4-yl-cyclohexyl)-amide]
75 to 150 nM	< 75 nM	N#Cc1ncc(N2C[C@@H](C(F)(F)F)O[C@@H](C(=O)NCC3(F)CCNCC3)C2)c2cccnc12 (single isomer, unassigned) [Example 317]
